Measurements: ChEMBL document CHEMBL4138061, “Structure-activity relationships for the synthesis of selective cyclooxygenase 2 inhibitors: an overview (2009-2016)” (Medchemcomm, 2017)

Columns and labels:
[1] = biological target: T1, Prostaglandin G/H synthase 2 (Homo sapiens, UniProt P35354); assay: Inhibition of human recombinant COX2 by enzyme immuno assay
T1 sequence (P35354 whole entry): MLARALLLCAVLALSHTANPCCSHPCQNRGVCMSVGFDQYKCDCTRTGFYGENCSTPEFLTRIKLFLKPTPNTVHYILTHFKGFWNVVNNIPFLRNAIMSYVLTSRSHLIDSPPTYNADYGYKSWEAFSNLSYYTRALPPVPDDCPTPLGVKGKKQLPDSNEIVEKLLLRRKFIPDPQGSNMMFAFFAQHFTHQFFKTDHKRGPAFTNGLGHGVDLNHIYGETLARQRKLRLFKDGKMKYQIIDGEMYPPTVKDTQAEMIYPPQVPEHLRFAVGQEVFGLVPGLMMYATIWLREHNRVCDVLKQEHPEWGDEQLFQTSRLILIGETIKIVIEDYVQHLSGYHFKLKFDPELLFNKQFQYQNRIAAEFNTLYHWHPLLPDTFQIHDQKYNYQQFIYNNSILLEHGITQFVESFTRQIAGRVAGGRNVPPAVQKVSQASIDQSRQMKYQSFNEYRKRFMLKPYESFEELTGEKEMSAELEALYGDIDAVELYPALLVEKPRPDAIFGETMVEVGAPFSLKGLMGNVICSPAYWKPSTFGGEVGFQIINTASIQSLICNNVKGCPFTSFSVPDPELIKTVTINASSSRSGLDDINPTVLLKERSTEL

[2] = Selectivity index, ratio of IC50 for ovine COX1 to IC50 for human COX2
[3] = biological target: T1, Prostaglandin G/H synthase 2; assay: Inhibition of COX2 in human lympho-monocytes suspension assessed as reduction in LPS-induced PGE2 production pre-incubated for 30 mins before LPS stimulation for 24 hrs by EIA method; format: cell-based
[4] = biological target: T1, Prostaglandin G/H synthase 2; assay: Inhibition of human COX2 assessed as reduction in PGE2 production incubated for 2 mins using arachidonic acid substrate by enzyme immuno assay
[5] = biological target: T2, Prostaglandin G/H synthase 1 (Homo sapiens, UniProt P23219); assay: Inhibition of human COX1 assessed as reduction in PGE2 production incubated for 2 mins using arachidonic acid substrate by enzyme immuno assay
Homo sapiens [6] = organism: Homo sapiens; assay: Selectivity index, ratio of IC50 for human COX1 to IC50 for human COX2
[7] = biological target: T3, Prostaglandin G/H synthase 1 (Ovis aries, UniProt P05979); assay: Inhibition of ovine COX1 by fluorescence based assay
T3 sequence (P05979 whole entry): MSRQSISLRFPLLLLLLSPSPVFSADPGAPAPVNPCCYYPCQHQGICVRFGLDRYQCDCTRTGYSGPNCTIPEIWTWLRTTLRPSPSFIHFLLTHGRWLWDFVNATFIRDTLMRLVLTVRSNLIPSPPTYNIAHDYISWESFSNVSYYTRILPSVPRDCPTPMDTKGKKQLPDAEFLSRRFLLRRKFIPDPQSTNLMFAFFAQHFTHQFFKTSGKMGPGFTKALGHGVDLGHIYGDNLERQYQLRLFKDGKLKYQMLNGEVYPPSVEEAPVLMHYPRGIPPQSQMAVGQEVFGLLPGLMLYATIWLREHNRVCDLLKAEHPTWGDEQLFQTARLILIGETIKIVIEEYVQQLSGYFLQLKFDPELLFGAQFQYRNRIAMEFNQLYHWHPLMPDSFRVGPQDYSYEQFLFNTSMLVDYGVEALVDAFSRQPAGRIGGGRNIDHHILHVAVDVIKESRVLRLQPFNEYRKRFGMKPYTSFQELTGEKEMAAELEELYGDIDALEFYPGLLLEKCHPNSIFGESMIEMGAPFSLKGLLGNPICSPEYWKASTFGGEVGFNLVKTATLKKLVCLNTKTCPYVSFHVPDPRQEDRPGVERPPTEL

[8] = biological target: T1, Prostaglandin G/H synthase 2; assay: Inhibition of human COX2 by fluorescence based assay
[9] = biological target: T3, Prostaglandin G/H synthase 1; assay: Inhibition of ovine COX1 using arachidonic acid substrate by TMPD dye based colorimetry
[10] = biological target: T1, Prostaglandin G/H synthase 2; assay: Inhibition of COX2 (unknown origin)
[11] = biological target: T2, Prostaglandin G/H synthase 1; assay: Inhibition of COX1 (unknown origin)
Homo sapiens [12] = organism: Homo sapiens; assay: Selectivity index, ratio of IC50 for COX1 (unknown origin) to IC50 for COX2 (unknown origin)
Ovis aries = organism: Ovis aries; assay: Selectivity index, ratio of IC50 for ovine COX1 to IC50 for ovine COX2
[13] = biological target: T4, Prostaglandin G/H synthase 1 (Ovis aries) (UniProt P05979); assay: Inhibition of ovine COX1 at 10 ug/ml using arachidonic acid substrate by TMPD dye based colorimetry
T4 sequence (whole entry): T3 sequence (P05979 whole entry)

[14] = biological target: T5, Prostaglandin G/H synthase 2 (Ovis aries) (UniProt P79208); settings: 10 ug/ml
T5 sequence (whole entry): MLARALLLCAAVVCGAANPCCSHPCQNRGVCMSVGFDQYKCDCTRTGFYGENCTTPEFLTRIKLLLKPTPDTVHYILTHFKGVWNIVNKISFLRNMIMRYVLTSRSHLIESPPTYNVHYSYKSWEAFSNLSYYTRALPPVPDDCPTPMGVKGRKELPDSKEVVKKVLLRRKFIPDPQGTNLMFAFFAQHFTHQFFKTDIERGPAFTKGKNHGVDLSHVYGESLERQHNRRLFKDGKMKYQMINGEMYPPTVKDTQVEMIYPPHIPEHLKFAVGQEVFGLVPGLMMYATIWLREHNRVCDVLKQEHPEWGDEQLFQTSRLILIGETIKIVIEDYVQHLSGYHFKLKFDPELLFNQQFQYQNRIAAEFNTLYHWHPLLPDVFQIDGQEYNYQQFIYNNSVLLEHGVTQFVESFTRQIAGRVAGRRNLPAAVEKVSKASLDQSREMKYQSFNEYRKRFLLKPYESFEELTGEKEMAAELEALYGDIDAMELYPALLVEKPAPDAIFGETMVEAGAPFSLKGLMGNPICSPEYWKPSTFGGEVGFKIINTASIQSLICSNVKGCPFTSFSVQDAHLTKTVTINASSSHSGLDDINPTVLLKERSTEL
Description: Inhibition of ovine COX2 at 10 ug/ml using arachidonic acid substrate by TMPD dye based colorimetry

[15] = biological target: T1, Prostaglandin G/H synthase 2; assay: Inhibition of human recombinant COX2 assessed as reduction in […] production incubated for 10 mins using arachidonic acid substrate by enzyme immuno assay
[16] = biological target: T3, Prostaglandin G/H synthase 1; assay: Inhibition of ovine recombinant COX1 by enzyme immuno assay
[17] = biological target: T3, Prostaglandin G/H synthase 1; assay: Inhibition of ovine COX1 by enzyme chemiluminescence assay
[18] = biological target: T6, Prostaglandin G/H synthase 2 (Ovis aries, UniProt P79208); assay: Inhibition of ovine COX2 by enzyme chemiluminescence assay
T6 sequence (P79208 whole entry): T5 sequence (whole entry)

T2 sequence (P23219 whole entry): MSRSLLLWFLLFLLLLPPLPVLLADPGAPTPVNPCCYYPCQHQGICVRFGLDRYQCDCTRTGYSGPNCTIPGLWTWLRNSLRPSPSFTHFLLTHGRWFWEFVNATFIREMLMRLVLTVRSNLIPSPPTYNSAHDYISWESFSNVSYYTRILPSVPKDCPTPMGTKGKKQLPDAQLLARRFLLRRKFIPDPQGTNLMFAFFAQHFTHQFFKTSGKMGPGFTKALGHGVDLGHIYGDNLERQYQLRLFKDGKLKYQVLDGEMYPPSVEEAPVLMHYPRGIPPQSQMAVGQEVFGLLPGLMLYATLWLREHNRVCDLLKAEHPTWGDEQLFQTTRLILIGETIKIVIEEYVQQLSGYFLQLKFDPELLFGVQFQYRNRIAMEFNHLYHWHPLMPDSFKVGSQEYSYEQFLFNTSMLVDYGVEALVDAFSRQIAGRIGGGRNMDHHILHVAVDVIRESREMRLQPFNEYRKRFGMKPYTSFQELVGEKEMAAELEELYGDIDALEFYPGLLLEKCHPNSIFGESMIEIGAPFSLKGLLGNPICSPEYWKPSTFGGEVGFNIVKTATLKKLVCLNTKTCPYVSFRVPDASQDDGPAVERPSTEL

CS(=O)(=O)c1ccc(-n2nc(-c3ccc(O)cc3)cc2-c2ccc(C(F)(F)F)cc2)cc1
IC50 [1]: 970 nM | Ratio IC50 [2]: 6.08

Cc1ccc(Nc2c(F)cccc2Cl)c(Cc2nnn[nH]2)c1
IC50 [3]: 14 nM

NS(=O)(=O)c1ccc(N2N=C(c3ccc(N4CCOCC4)cc3)CC2c2ccc(F)cc2F)cc1 (stereo not given)
IC50 [4]: 80 nM | IC50 [5]: 36100 nM | Ratio IC50 (Homo sapiens [6]): 451

Cc1ccc(-c2c(-c3ccc(S(C)(=O)=O)cc3)c3cccc4ccn2c43)cc1
IC50 [7]: > 100000 nM | IC50 [8]: 20 nM | Ratio IC50 [2]: > 5000

Cc1ccc(-c2nn(Cc3nnc(-c4ccccc4[N+](=O)[O-])o3)c(=O)c3ccccc23)cc1C
IC50 [9]: > 50000 nM

CS(=O)(=O)c1ccc(C2C(c3ccccc3)=NOC23COc2ccccc2C3=O)cc1 (stereo not given)
IC50 [10]: 90 nM | IC50 [11]: 10500 nM | Ratio IC50 (Homo sapiens [12]): 116

Cc1cc(C)c2c(n1)nn1c(/C=C/c3ccc([N+](=O)[O-])cc3)c(C)[nH]c21
IC50 [9]: 63800 nM | Ratio IC50 (Ovis aries): 133 | inhibition [13]: 3.92% | inhibition [14]: 76%

CS(=O)(=O)c1ccc(C2NN=C(c3ccc([N+](=O)[O-])cc3)O2)cc1 (stereo not given)
Ratio IC50 [2]: 133 | IC50 [15]: 480 nM

CCOc1ccc(-c2cc(-c3ccc(C(F)(F)F)cc3)n(-c3ccc(S(C)(=O)=O)cc3)n2)cc1
IC50 [1]: 970 nM | Ratio IC50 [2]: 5.77 | IC50 [16]: 5600 nM

CS(=O)(=O)c1ccc(-c2cc(Cn3ccnc3)c3ccc4c(c3n2)CCCC4)cc1
Ratio IC50 (Ovis aries): 548 | IC50 [17]: 34500 nM | IC50 [18]: 63 nM
